How the values were obtained:
[1] = test system: T-cell proliferation in canine whole blood; assay: Canine in vitro T-cell Proliferation Assay; format: cell-based; settings: Canis lupus familiaris, ConA + canine IL-2, tritiated thymidine
Experimental: Methods: Canine whole blood was collected in sodium heparin tubes from 29 beagle dogs and 23 mixed breed dogs. Whole blood (20 μL) was plated in 96-well plates (Costar 3598) with 180 μL of medium (RPMI 1640, Gibco #21870-076, with 1% heat inactivated fetal bovine serum, Gibco #10082-39, 292 μg/ml L-glutamine, Gibco #250030-081, 100 u/ml penicillin and 100 μg streptomycin per ml, Gibco #15140-122) containing vehicle control or test compound (0.001 to 10 μM), concanavalin A (ConA; 1 μg/ml, Sigma C5275), and canine interleukin-2 (IL-2; 50 ng/ml, R&D Systems 1815-CL/CF). Wells containing whole blood, medium with vehicle control and no ConA or IL-2 were used as background controls. Plates were incubated at 37° C. for 48 hours. Tritiated thymidine, 0.4 μCi/well (Perkin Elmer, Net027A-005MC), was added for 20 additional hours. Plates were frozen and then thawed, washed and filtered using a Brandel MLR-96 cell harvester and prewet filter mats (Wallac 1205-401, Perkin Elmer). Filters were dried at 60° C. for one hour (Precision 16EG convection oven) and placed into filter sample bags (Wallac 1205-411, Perkin Elmer) with 10 mL of scintillant (Wallac 1205-440, Perkin Elmer). Sealed filters were counted on a LKB Wallac 1205 Betaplate liquid scintillation counter. Data were collected via Gterm Betaplate program v1.1 (Wallac copyright 1989-1990) and transformed into percent inhibition, calculated using the following formula: […]

flea allergic dogs = assay: Reducing Flea-associated Pruritus and Dermatitis Assay; format: in vivo; settings: for pruritus as compared to placebo (seconds of pruritus per 4 hour recording): 10% level of significance
Experimental: Twenty eight male and female dogs of mixed breeds ranging in weight from 5-35 kg and greater than one year of age were infested with approximately 100 unfed adult cat fleas (Ctenocephalides felis) 14 days prior to the start of dosing and reinfested with 30 fleas per dog every 4 days throughout the study. Seven days before dosing, twenty four dogs were randomized into three different treatment groups, placebo, 0.5 mg/kg or 0.25 mg/kg of the compound of Example 1b, based on visual analog scale (VAS) scores for skin lesions. Treatments were given orally twice a day for 28 days, and pruritic behavior as well as erythema and skin lesions were was assessed during the study. Pruritic behavior was recorded by placing dogs into pens with video recording capability, and recording their activity over 4 hours. Pruritic activity was quantitated by determining how many seconds the dogs spent scratching. Skin lesions were recorded by image capture of abdominal, inguinal region and the severity ranked according to a visual analog scale (VAS).
Video captured elapsed time of pruritic behavior was analyzed using a mixed linear model for repeated measures. The model included fixed effects of treatment and day of study and the interaction of treatment and day of study. Random effects included block, the interaction of block and treatment and error. Baseline data for pruritic behavior (day-1) were used as covariate in the analysis of pruritic behavior. Least squares means were used as estimates of treatment means. Standard errors of least squares means were estimated and 90% confidence intervals were constructed. Geometric means were computed from the least squares means for log-transformed data. A priori contrasts were used to assess treatment. Treatment differences were assessed at the 10% level of significance (P≦0.10).

SMILES	IC50 ([1]; whole blood from beagles) [µM]	IC50 ([1]; whole blood from mixed breed dogs) [µM]	pruritus as compared to placebo (seconds of pruritus per 4 hour recording) (flea allergic dogs; 0.25 mg/kg orally twice a day, days 1, 4 and 12)	Lesions and erythema (VAS) (flea allergic dogs; 0.5 mg/kg orally twice a day for 28 days, flea allergic dogs)	pruritus as compared to placebo (seconds of pruritus per 4 hour recording) (flea allergic dogs; 0.5 mg/kg orally twice a day, days 1 and 20)
CNS(=O)(=O)C[C@H]1CC[C@H](N(C)c2ncnc3[nH]ccc23)CC1 [Example 1a, N-methyl-1-{trans-4-[methyl(7H-pyrrolo[2,3-d]pyrimidin-4-yl)amino]cyclohexyl}methanesulfonamide]	0.0663	0.138			
CNS(=O)(=O)C[C@H]1CC[C@H](N(C)c2ncnc3[nH]ccc23)CC1.O=C(O)/C=C\C(=O)O [Example 1b, N-methyl-1-{trans-4-[methyl(7H-pyrrolo[2,3-d]pyrimidin-4-yl)amino]cyclohexyl}methanesulfonamide maleic acid salt]			Significant reductions	significantly reduced	Significant reductions
CN(c1ncnc2[nH]ccc12)[C@H]1CC[C@H](CS(=O)(=O)NC2CCC2)CC1 [Example 2, N-cyclobutyl-1-{trans-4-[methyl(7H-pyrrolo[2,3-d]pyrimidin-4-yl)amino]cyclohexyl}methanesulfonamide]	0.41				

Reference: US9271981B2, “Pyrrolo[2,3-D]pyrimidine compounds” (Zoetis Services LLC, priority 2008, dated 2016)
